Results: PubChem BioAssay AID743491 (The Scripps Research Institute Molecular Screening Center, 2014)
Active and inactive are the calls of the source. The rule behind the calls is not given here.

What follows are compounds tested against Trace amine-associated receptor 1 (Homo sapiens) (UniProt Q96RJ0) (assay: activators of human TAAR1 signalling – cell-based, fluorescence, MedChem round 1, dose response (AID 743491)). Settings: cells expressing human TAAR1, fluorescence agonist read-out.
Chain of Trace amine-associated receptor 1 (Homo sapiens) (Q96RJ0 whole entry, looked up): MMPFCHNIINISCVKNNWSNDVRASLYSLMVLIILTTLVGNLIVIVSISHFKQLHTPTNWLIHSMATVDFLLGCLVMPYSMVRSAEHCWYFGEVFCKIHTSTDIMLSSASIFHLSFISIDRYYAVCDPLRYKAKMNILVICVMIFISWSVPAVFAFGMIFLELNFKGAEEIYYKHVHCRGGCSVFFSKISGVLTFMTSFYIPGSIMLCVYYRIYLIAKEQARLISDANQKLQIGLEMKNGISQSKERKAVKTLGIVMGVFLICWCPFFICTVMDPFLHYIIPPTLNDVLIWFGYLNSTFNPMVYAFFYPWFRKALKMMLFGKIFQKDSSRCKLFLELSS

SMILES | EC50
CC(CN1CCC(c2ccccc2)C1)C(=O)c1ccc2c(c1)OCCO2 (stereo unspecified) | inactive
Cc1ccc(C(=O)CCN2CCC(c3ccccc3)C2)cc1 (stereo unspecified) | 114 nM
O=C(CCN1CCC(O)(c2ccccc2)C1)c1ccc2c(c1)OCCO2 (stereo unspecified) | > 29900 nM (inactive)
O=C(CCN1C[C@@H](C(=O)O)[C@H](c2ccccc2)C1)NC1CCCC1 | > 29900 nM (inactive)
O=C(CCN1CCC(c2ccccc2)C1)c1ccccc1 (stereo unspecified) | 174 nM
NC(=O)CCN1C[C@H](c2ccccc2)[C@@H]2[C@H]1C1CCN2CC1 | > 29900 nM (inactive)
O=C(CCN1CCC(O)(c2ccc(F)cc2)C1)c1ccc2c(c1)OCCO2 (stereo unspecified) | > 29900 nM (inactive)
O=C(CCN1C[C@@H](C(=O)O)[C@H](c2cccc(F)c2)C1)NC1CC1 | > 29900 nM (inactive)
O=C(CCN1C[C@@H](C(=O)O)[C@H](c2ccccc2)C1)NCc1cccs1 | > 29900 nM (inactive)
CC1CN(CCC(=O)c2ccc3c(c2)OCCO3)CC1c1ccccc1 (stereo unspecified) | 378 nM
CC(CN1CCCC1Cc1ccccc1)C(=O)c1ccc2c(c1)OCCO2 (stereo unspecified) | 678 nM
